# From US20260159536A1, “AKR1C3-ACTIVATED DNA ALKYLATING AGENT, AND MEDICAL APPLICATION THEREOF” (ASCENTAWITS PHARMACEUTICALS, LTD., priority 2021, published 2026)
# Like-named read-outs stand apart in the source and are kept apart here.
# Assays:
# NCIH2106 = assay: AKR1C3-dependent cytotoxicity, NSCLC cell line NCIH2106; assay type: cell-based
# Experimental: (§1) The tested compound was then added. The compound was dissolved in 100% DMSO at 200 times of the desired final test concentration. When the medicament was added, the compound was further diluted to 4 times of the desired final test concentration by using the complete medium. 50 μL of aliquots of the compound with specific concentration were added to the microwells containing 150 μL of medium, and then the final medicament concentration was obtained. […] The medicament was then washed. […] After the incubation was finished, the Alamar Blue was used to analyze and quantify the living cells.
# NCI-H2228 = assay: AKR1C3-dependent cytotoxicity, NSCLC cell line NCI-H2228; assay type: cell-based; conditions: Homo sapiens
# Experimental: as §1
# [1] = Liver microsome stability, monkey; assay type: in vitro ADME; conditions: Monkey liver microsomes; with the addition of NADPH
# Experimental: (§2) 1) Two individual experiments were performed.
# (§3) All experiments were performed in duplicate.
# NCI-H1792 = assay: AKR1C3-dependent cytotoxicity, NSCLC cell line NCI-H1792; assay type: cell-based; conditions: Homo sapiens
# Experimental: as §1
# [2] = Liver microsome stability, human; assay type: in vitro ADME; conditions: Human liver microsomes; with the addition of NADPH
# Experimental: as §2, §3
# [3] = system: HuPrime model LI6664 human liver cancer; assay: In vivo pharmacodynamics, liver cancer LI6664 PDX model; design: species or system BALB/c nude mice; conditions: for Relative tumor volume (x ± S) / Tumor volume (x ± S): mean ± standard error; for Tumor volume (x ± S): in mm³ (unit assumed)
# Experimental: Experiment Instruction: BALB/c nude mice were subcutaneously inoculated with HuPrime® model LI6664 tumor blocks to establish a subcutaneous transplantation tumor model of human liver cancer. […] Among them, 7.5% anhydrous ethanol+7.5% polyoxyethylene (35) castor oil+85% glucose injection D5W (pH 7.4) vehicle control group was administered by tail vein once a week for 3 consecutive weeks; test drug AST-3424 0.3 mg/kg and 1 mg/kg groups were administered by tail vein injection once a day for 5 consecutive days, followed by 2 days off, followed by 2 weeks off, and then continuously administered for 5 consecutive days; the test drug AST-3424 1.25 mg/kg group was administered by tail vein injection once a week for 2 consecutive weeks, followed by one week off, and then continuously administered for 2 consecutive weeks, Compound A 0.5 mg/kg, 1.5 mg/kg, and 4.5 mg/kg groups were administered by tail vein injection once a week for three consecutive weeks, followed by 1 week off, and then administered for three consecutive weeks. […] The efficacy was evaluated according to the relative tumor inhibition rate TGI (%), and the safety was evaluated according to the change in body weight and the death of the animals.
# [4] = system: HuPrime model GA6201 human gastric cancer; conditions: for Tumor volume: AST-3424 5 mg/kg i.v.
# Experimental: The test was divided into groups of the test drug Isocyclophosphamide 60 mg/kg group, the test drug AST-3424 5 mg/kg group, the test drug A compound 2.5 mg/kg and 5 mg/kg groups, and normal saline (pH 7.0-7.6) vehicle control group, a total of 5 groups, with 5 mice per group.
# In the above dosing regimen, Isocyclophosphamide was designed based on the best dosing regimen with maximum safe dosage as recited in the document (Jessica D. Sun, Qian Liu, Dharmendra Ahluwalia, Damien J. Ferraro, Yan Wang, Don Jung, Mark D. Matteucci, and Charles P. Hart. Comparison of hypoxia-activated prodrug evofosfamide (TH-302) and ifosfamide in preclinical non-small cell lung cancer models [J]. Cancer Biology & Therapy, 2016, 17(4): 371-380).
# CAL12T = assay: AKR1C3-dependent cytotoxicity, NSCLC cell line CAL12T; assay type: cell-based; conditions: Homo sapiens, CAL-12T
# Experimental: as §1
# NCI-H1944 = assay: AKR1C3-dependent cytotoxicity, NSCLC cell line NCI-H1944; assay type: cell-based; conditions: Homo sapiens
# Experimental: as §1
# H460 cancer cells = assay: H460 proliferation in the presence or absence of AKR1C3 inhibitor AST-3021 (Alamar Blue); assay type: cell-based, human; conditions: for IC50: Homo sapiens, NCI-H460, H460, 2 hours exposure
# Experimental: as §1
# NCI-H1563 = assay: AKR1C3-dependent cytotoxicity, NSCLC cell line NCI-H1563; assay type: cell-based; conditions: Homo sapiens
# Experimental: as §1
# [5] = AST-3424 5 mg/kg i.v. QWx2, Day 38
structure (smiles),measurement,setting,value
C[C@@H](OP(=O)(N1CC1)N1CC1)c1ccc([N+](=O)[O-])c(Oc2cccc(C(=O)N(C)C)c2)c1 [AST-3424],IC50,NCIH2106,> 1000 nM
same,IC50,NCI-H2228,0.21 nM
same,Percentage remaining after 30 minutes,[1],0.03%
same,IC50,NCI-H1792,4.5 nM
same,Percentage remaining after 30 minutes,[2],10.65%
same,relative tumor inhibition rate TGI (%),"[3]; 0.3 mg/kg i.v. QDx5, 2 days off, 2 weeks off, QDx5, Day 28",45.85%
same,relative tumor inhibition rate TGI (%),"[3]; 1 mg/kg i.v. QDx5, 2 days off, 2 weeks off, QDx5, Day 28",65.05%
same,relative tumor inhibition rate TGI (%),"[3]; 1.25 mg/kg i.v. QWx2, 1 week off, QWx2, Day 28",52.42%
same,T/C (%),"[3]; AST-3424 0.3 mg/kg, Day 28",54.15%
same,Relative tumor volume (x ± S),"[3]; AST-3424 0.3 mg/kg, Day 28",6.99 ± 1.31
same,Tumor volume (x ± S),"[3]; AST-3424 0.3 mg/kg, Day 28",746.71 ± 130.55
same,T/C (%),"[3]; AST-3424 1 mg/kg, Day 28",34.95%
same,Relative tumor volume (x ± S),"[3]; AST-3424 1 mg/kg, Day 28",4.51 ± 1.21
same,Tumor volume (x ± S),"[3]; AST-3424 1 mg/kg, Day 28",463.09 ± 99.32
same,T/C (%),"[3]; AST-3424 1.25 mg/kg, Day 28",47.58%
same,Relative tumor volume (x ± S),"[3]; AST-3424 1.25 mg/kg, Day 28",6.14 ± 0.94
same,Tumor volume (x ± S),"[3]; AST-3424 1.25 mg/kg, Day 28",687.95 ± 147.16
same,Size of tumor volume,"[3]; Group3, AST-3424 0.3 mg/kg, Day 0",108.20 mm^3
same,Size of tumor volume,"[3]; Group3, AST-3424 0.3 mg/kg, Day 4",162.32 mm^3
same,Size of tumor volume,"[3]; Group3, AST-3424 0.3 mg/kg, Day 7",177.51 mm^3
same,Size of tumor volume,"[3]; Group3, AST-3424 0.3 mg/kg, Day 11",208.59 mm^3
same,Size of tumor volume,"[3]; Group3, AST-3424 0.3 mg/kg, Day 14",306.95 mm^3
same,Size of tumor volume,"[3]; Group3, AST-3424 0.3 mg/kg, Day 18",391.40 mm^3
same,Size of tumor volume,"[3]; Group3, AST-3424 0.3 mg/kg, Day 21",499.34 mm^3
same,Size of tumor volume,"[3]; Group3, AST-3424 0.3 mg/kg, Day 25",631.08 mm^3
same,Size of tumor volume,"[3]; Group3, AST-3424 0.3 mg/kg, Day 28",746.71 mm^3
same,Size of tumor volume,"[3]; Group3, AST-3424 0.3 mg/kg, Day 32",958.09 mm^3
same,Size of tumor volume,"[3]; Group3, AST-3424 0.3 mg/kg, Day 35",1059.71 mm^3
same,Size of tumor volume,"[3]; Group3, AST-3424 0.3 mg/kg, Day 39",1226.51 mm^3
same,Size of tumor volume,"[3]; Group3, AST-3424 0.3 mg/kg, Day 42",1094.69 mm^3
same,Size of tumor volume,"[3]; Group3, AST-3424 0.3 mg/kg, Day 46",1268.82 mm^3
same,Size of tumor volume,"[3]; Group3, AST-3424 0.3 mg/kg, Day 49",1486.77 mm^3
same,Size of tumor volume,"[3]; Group4, AST-3424 1 mg/kg, Day 0",107.53 mm^3
same,Size of tumor volume,"[3]; Group4, AST-3424 1 mg/kg, Day 4",131.59 mm^3
same,Size of tumor volume,"[3]; Group4, AST-3424 1 mg/kg, Day 7",145.23 mm^3
same,Size of tumor volume,"[3]; Group4, AST-3424 1 mg/kg, Day 11",158.03 mm^3
same,Size of tumor volume,"[3]; Group4, AST-3424 1 mg/kg, Day 14",233.54 mm^3
same,Size of tumor volume,"[3]; Group4, AST-3424 1 mg/kg, Day 18",291.97 mm^3
same,Size of tumor volume,"[3]; Group4, AST-3424 1 mg/kg, Day 21",371.35 mm^3
same,Size of tumor volume,"[3]; Group4, AST-3424 1 mg/kg, Day 25",438.00 mm^3
same,Size of tumor volume,"[3]; Group4, AST-3424 1 mg/kg, Day 28",463.09 mm^3
same,Size of tumor volume,"[3]; Group4, AST-3424 1 mg/kg, Day 32",622.48 mm^3
same,Size of tumor volume,"[3]; Group4, AST-3424 1 mg/kg, Day 35",748.13 mm^3
same,Size of tumor volume,"[3]; Group4, AST-3424 1 mg/kg, Day 39",929.60 mm^3
same,Size of tumor volume,"[3]; Group4, AST-3424 1 mg/kg, Day 42",1226.79 mm^3
same,Size of tumor volume,"[3]; Group4, AST-3424 1 mg/kg, Day 46",1496.83 mm^3
same,Size of tumor volume,"[3]; Group4, AST-3424 1 mg/kg, Day 49",1717.60 mm^3
same,Size of tumor volume,"[3]; Group5, AST-3424 1.25 mg/kg, Day 0",108.46 mm^3
same,Size of tumor volume,"[3]; Group5, AST-3424 1.25 mg/kg, Day 4",174.65 mm^3
same,Size of tumor volume,"[3]; Group5, AST-3424 1.25 mg/kg, Day 7",210.25 mm^3
same,Size of tumor volume,"[3]; Group5, AST-3424 1.25 mg/kg, Day 11",222.97 mm^3
same,Size of tumor volume,"[3]; Group5, AST-3424 1.25 mg/kg, Day 14",291.02 mm^3
same,Size of tumor volume,"[3]; Group5, AST-3424 1.25 mg/kg, Day 18",361.03 mm^3
same,Size of tumor volume,"[3]; Group5, AST-3424 1.25 mg/kg, Day 21",467.94 mm^3
same,Size of tumor volume,"[3]; Group5, AST-3424 1.25 mg/kg, Day 25",581.63 mm^3
same,Size of tumor volume,"[3]; Group5, AST-3424 1.25 mg/kg, Day 28",687.95 mm^3
same,Size of tumor volume,"[3]; Group5, AST-3424 1.25 mg/kg, Day 32",746.71 mm^3
same,Size of tumor volume,"[3]; Group5, AST-3424 1.25 mg/kg, Day 35",871.84 mm^3
same,Size of tumor volume,"[3]; Group5, AST-3424 1.25 mg/kg, Day 39",1081.64 mm^3
same,Size of tumor volume,"[3]; Group5, AST-3424 1.25 mg/kg, Day 42",1307.36 mm^3
same,Size of tumor volume,"[3]; Group5, AST-3424 1.25 mg/kg, Day 46",1675.14 mm^3
same,Size of tumor volume,"[3]; Group5, AST-3424 1.25 mg/kg, Day 49",1923.31 mm^3
same,weight loss,"[3]; mouse, in vivo",no weight loss
same,Relative tumor volume (x ± S),[4]; [5],0.11 ± 0.07
same,T/C (%),[4]; [5],1.21%
same,TGI (%),[4]; [5],98.79%
same,Tumor volume (x ± S),[4]; [5],12.65 ± 7.91
same,Tumor volume,[4]; 0 day,94.19 mm^3
same,Tumor volume,[4]; 3 days,114.98 mm^3
same,Tumor volume,[4]; 7 days,84.33 mm^3
same,Tumor volume,[4]; 10 days,77.04 mm^3
same,Tumor volume,[4]; 14 days,63.59 mm^3
same,Tumor volume,[4]; 17 days,52.08 mm^3
same,Tumor volume,[4]; 21 days,45.81 mm^3
same,Tumor volume,[4]; 24 days,40.55 mm^3
same,Tumor volume,[4]; 28 days,30.28 mm^3
same,Tumor volume,[4]; 31 days,23.24 mm^3
same,Tumor volume,[4]; 35 days,18.55 mm^3
same,Tumor volume,[4]; 38 days,12.65 mm^3
same,Tumor volume,[4]; 42 days,13.42 mm^3
same,Tumor volume,[4]; 45 days,10.82 mm^3
same,Tumor volume,[4]; 49 days,8.15 mm^3
same,body weight change / toxic effects,"[4]; GA6201 model, tested doses",no toxic effects
same,IC50,CAL12T,29.1 nM
same,IC50,NCI-H1944,2.3 nM
same,IC50,"H460 cancer cells; AST-3021 3 micromolar, read-out: IC50 With the addition of AST-3021",44.9 nM
same,IC50,"H460 cancer cells; no AKR1C3 inhibitor, read-out: IC50 Without the addition of AST-3021",0.349 nM
same,Fold,H460 cancer cells; IC50 with AST-3021 over IC50 without,128.71
same,IC50,NCI-H1563,2.5 nM
